The source of these data is patent US20230042176A1, “METHOD FOR TREATING ANGELMAN SYNDROME AND RELATED DISORDERS” (priority 2019, published 2023).

Data set [1] relates to WT and Ube3a m-/p+ mice. Format: in vivo, mouse. The following applies: for seizure grade based on Racine's scale: no paxilline. The protocol: […]. Seizure severity of mice was dependent on multiple variables such as picrotoxin dose, mice age, and their body weights. […] Videos were recorded for all the behavioural experiments. Behavioral analysis was performed in a double-blind manner with littermates (siblings of wild-type (Ube3a^m+/p+) and maternal knockout (Ube3a^m−/p+) mice that produced from same pairs of Ube3a^m+/p− females and Ube3a^m+/p+ males).

Data set [2] concerns WT and Ube3a m-/p+ mice. The data set is described as follows: Flurothyl-induced seizures. Type of data set: in vivo, mouse. The following applies: paxilline pre-treatment 0.35 mg/kg i.p.; flurothyl 100 μl/min. The source says:
Chamber was cleaned and the tissue paper was replaced before each new trial.

The subject of data set [3] is neurons of WT and UBE3A KO cortical organoids. Put plainly: Whole cell and perforated patch clamp recordings of neurons in human cortical organoids. Type of data set: cell-based. The following applies: for changes in neuronal excitability, fAHP, and network hyperactivity and synchronization in human cortical organoids from UBE3A knockout stem cells: summary statement. On the procedure:
Cortical organoids were generated based on a published protocol (Pasca et al., Nat Methods 12, 671-678 (2015)) with minor modifications. hPSCs were dissociated to single cells by TrypLE Express (Thermofisher) and seeded into U-shaped ultra-low attachment 96-well plate (Corning) at a density of 6K cells/well in the presence of thiazovivin (5 μM, Tocris). After spheroid formation, media were completely changed to Neural Induction Media (NIM: DMEM/F12 (Nacalai Tesque), 20% KnockOut Serum Replacement (Thermofisher), 1% minimum essential media-nonessential amino acid (Thermofisher), 1% GlutaMax (Thermofisher), 1% Antibiotic-Antimycotic (Thermofisher), 0.1% β-mercaptoethanol (Thermofisher), 5 μM Dorsomorphin (Tocris), 10 μM SB431542 (Stemgent)) for the next 6 days, with media change every other day. Starting day 7, media were changed to Neural Growth Media (NGM: Neurobasal (Thermofisher), 1:50 B27 without vitamin A (Thermofisher), 1% GlutaMAX (Thermofisher), 1% Antibiotic-Antimycotic (Thermofisher), 20 ng/ml EGF (PeproTech), 20 ng/ml FGF-basic (PeproTech)) for the next 18 days, with media change every other day. Starting day 25, organoids were transferred out of 96-well plates to 6-well plates (6-8 organoids per well), cultured in Organoid Media I (OMI: Neurobasal (Thermofisher), 1:50 B27 without vitamin A (Thermofisher), 1% GlutaMax (Thermofisher), 1% Antibiotic-Antimycotic (Thermofisher), 10 mM HEPES (Thermofisher), 10 ng/ml BDNF (PeproTech), 10 ng/ml NT3 (PeproTech)) until day 100 on an orbital shaker (75 rev/min). After day 100, media were changed to Organoid Media II (OMII: BrainPhys (Stemcell Technologies), 1:50 SM1 (Stemcell Technologies), 1% GlutaMax (Thermofisher), 1% Antibiotic-Antimycotic (Thermofisher), 10 mM HEPES (Thermofisher), 10 ng/ml BDNF (PeproTech), 10 ng/ml GDNF (PeproTech), 10 ng/ml NT3 (PeproTech), 100 μM db-cAMP (Sigma)).
(§1) Whole cell patch clamp recordings of neurons in the organoid (wholemount) and acute mouse hippocampal slices were performed in a recording chamber (RC-26GLP, Warner Instruments) and submerged under continuously perfused artificial CSF (aCSF) containing (in mM): 119 NaCl, 2.5 KCl, 11 glucose, 26 NaHCO3, 1.25 NaH2PO4, 2.5 CaCl2 and 2 MgCl2 saturated with 95% O2 and 5% CO2 at 30-32° C. Neuronal intrinsic excitability was measured in the presence of CNQX (20 μM, Tocris) and APV (50 μM, Tocris) to block all excitatory synaptic responses. We targeted neurons near the surface of organoids with reasonably pyramidal-shaped cell bodies under our DIC/IR camera. […] Signals were recorded using a MultiClamp 700B amplifier, filtered at 2 kHz using a Bessel filter, and digitized at 40 kHz with a Digidata 1550B analog-to-digital (A/D) board (Molecular Devices, Sunnyvale, Calif.). […]
A general note: In patch-clamp work, channel activity is measured electrically.

Data set [4] concerns WT and UBE3A KO cortical organoids. Put plainly: Two-photon calcium imaging of cortical organoids. The following applies: paxilline 10 μM. Format: cell-based, human.
Data set [5] has as its system WT and UBE3A KO human induced neurons. Put plainly: Whole cell patch clamp recordings of human induced neurons (fAHP amplitude, AP firing frequency). Format: cell-based.
The subject of data set [6] is WT and Ube3a m-/p+ mice. Put plainly: In vivo local field potential (LFP) recording in freely moving mice. Further details: species or system mouse. The following applies: paxilline 0.35 mg/kg, 4 times with 1-hour interval. On the procedure: […]. Eye cream was applied to a mouse to protect the eye from drying due to anaesthesia. 2% lidocaine was injected under the scalp and subsequently scalp was removed to expose the skull. […] Stereotrodes were made with platinum-iridium wire (90%:10%, A-M system) and unilaterally implanted into BIC. Stainless steel screw (AP: 2 mm, Lateral: 2 mm) was used as a reference electrode. Iodopavidone was applied for disinfection around the surgical area after dental cement mounting. Mice were maintained on a heating pad at 37° C. until waking from the anaesthesia before putting back to home cages. LFP recordings were performed on the mice 5 days after surgery. LFP recordings were conducted in a copper-Faraday chamber. For evoked LFP, auditory stimulus (˜125 dB, 500 Hz) was provided by a speaker (EKX, Electro-Voice) driven by a customized program in Matlab. LFP was recorded with sampling rate at 500 Hz and filtered with 0.5 Hz high-pass and 100 Hz low-pass by EEG/EMG recording system (Pinnacle). […] Video was recorded simultaneously for further analysis. After all recordings, mice were sacrificed, and their brains were isolated and fixed using 4% PFA in PBS and the implanted electrode locations were confirmed by either bright field imaging or DAPI staining and subsequent fluorescence imaging.

Data set [7] relates to hippocampal neurons of WT and Ube3a m-/p+ mice. The data set is described as follows: Whole cell patch clamp recordings in acute mouse hippocampal slices. Format: cell-based. The following applies: paxilline, postnatal day 28. The protocol:
as §1
For fAHP analysis in all recordings, automatic detection and calculation was conducted by customized matlab scripts adapted from published algorithm (Bean, Nat Rev Neurosci 8, 451-465 (2007); Platkiewicz and Brette, PLoS Comput Biol 6, e1000850 (2010); Yu et al., J Neurosci 28, 7260-7272 (2008)). […] The fAHP amplitude of each neuron was calculated by averaging the fAHP of the first spike in all current injection steps. […]

The subject of a further data set is healthy human volunteers. The following applies: i.v. infused for 1 hour; cited from earlier work.
The subject of data set [8] is BK protein level in HEK293 cells. Put plainly: BK protein level in HEK293 cells overexpressing UBE3A (immunoblotting). Type of data set: cell-based, human. The following applies: proteasome inhibitor 1 μM. The protocol: Induced neurons or cortical organoids were lysed in RIPA buffer supplemented with protease and phosphatase inhibitor cocktails. Protein samples were loaded onto 8-12% Bis-TRIS (NP0322BOX Invitrogen) and were transferred onto a PVDF membrane. After blocking with 5% milk in TBS-T buffer for 1 hour, PVDF membranes were incubated with primary antibodies overnight at 4° C., followed by 1-hour incubation with mouse or rabbit HRP antibody (1:2000, Invitrogen) at RT. Images were visualized by either chemiluminescence or NIR fluorescent detection using c600 Imaging System (Azure Biosystems Inc). HEK293 cells were grown in DMEM (Sigma) containing 10% FBS (Gibco) and 100 U/mL penicillin-streptomycin (Gibco) in a 5% CO2 incubator. Cells were transfected with a Lipofectamine PLUS (Invitrogen), subsequently were treated with 1 μM of MG132 (A.G Scientific) for another 24 h. Next, cells were lysed in PBS containing 1% SDS (Invitrogen), 1 mM PMSF (USB), 10 μg/ml aprotinin (Roche), and 1% (v/v) phosphatase inhibitor cocktail 2 and 3 (Sigma).
(In western blotting, separated proteins are transferred to a membrane and probed.)

Entries after “also recorded” stand apart in the source; their conditions may differ. Read-outs that look alike come from different tables or passages of the source. Peptide text beside a SMILES is read from it. * marks the point of attachment. Cbz = O=C(OCc1ccccc1)*

On to picrotoxin, for which the “seizure grade based on Racine's scale” value is given as 5 grade with WT and Ube3a m-/p+ mice [1] (picrotoxin 3 mg/kg i.p., Ube3a m-/p+ mice); 1-2 grade in the data set with WT and Ube3a m-/p+ mice [1] (picrotoxin 3 mg/kg i.p., WT mice).

`CC(C)(O)[C@H]1O[C@H]2CC[C@@]3(C)[C@@](O)(CC[C@H]4Cc5c([nH]c6ccccc56)[C@@]43C)C2=CC1=O` [Paxilline, (2R,4bS,6aS,12bS,12cR,14aS)-4b-hydroxy-2-(1-hydroxy-1-methylethyl)-12b,12c-dimethyl-5,6,6a,7,12,12b,12c,13,14,14a-decahydro-2H-chromeno[5′,6′:6,7]indeno[1,2-b]indol-3(4bH)-one]: in the data set on WT and KO mice (10 mg/kg paxilline, WT and KO mice), the “seizures caused by paxilline” value is listed as “caused seizures”. Besides, the “tremor in WT mice” value in the data set on WT and KO mice (paxilline 3 mg/kg compared to 0.35 mg/kg, WT mice) is “induced tremor”. In addition, the “tremor in KO mice” value in the data set on WT and KO mice (paxilline 3 mg/kg, KO mice) is “not evident”. Also, in the data set with WT and Ube3a m-/p+ mice [2], the “reduction in the latency to myoclonic seizure in Ube3a m-/p+ mice” value is listed as “normalized”. Moreover, the “seizure susceptibility in KO mice” value in the data set on WT and Ube3a m-/p+ mice [1] (paxilline high dose 3 mg/kg, KO mice) is “responded positively”. Moreover, the “seizure susceptibility in WT mice” value in the data set with WT and Ube3a m-/p+ mice [1] (paxilline high dose 3 mg/kg, WT mice) is reported as “increased seizure susceptibility”. The “seizure grade of Ube3a m-/p+ mice versus WT mice” value in the data set with WT and Ube3a m-/p+ mice [1] (paxilline pre-treatment 0.35 mg/kg i.p., picrotoxin 3 mg/kg i.p.) is recorded as “normalize”. Further, the “augmented neuronal excitability and fAHP changes in neurons of KO organoids” value in [3] (paxilline 10 μM, KO organoids) is reported as “normalized”. For the same molecule, in data set [3] (paxilline 10 μM, perforated patch recordings, KO organoids), the “spontaneous burst firing in neurons of UBE3A KO organoids” value is listed as “completely converted spontaneous burst firing into single AP firing”. For the same molecule, in [3], the “changes in neuronal excitability, fAHP, and network hyperactivity and synchronization in human cortical organoids from UBE3A knockout stem cells” value is given as “normalized”. Also, in data set [4], the “frequencies and amplitudes of calcium transients in the organoids” value was “decreased both the frequencies and the amplitudes”; the “higher levels of network synchronization in KO and AS iPSC-derived organoids” value is reported as “abolished”. For the same molecule, the “differences in fAHP amplitude and AP firing frequency between KO and WT neurons” value in data set [5] (5 μM paxilline) is “normalized”. Further, the “excitability and fAHP in KO neurons” value in data set [5] (5 μM paxilline, KO neurons) was “successfully restored excitability and fAHP to WT levels”. For the same molecule, in data set [5] (20 μM paxilline, WT neurons), the “fAHP in WT neurons” value is listed as “significantly lowered fAHP”. Further, the “fAHP in WT neurons” value in data set [5] (paxilline 5 μM, WT neurons) is on record as “did not significantly reduce the fAHP”. Besides, in the data set with WT and Ube3a m-/p+ mice [6], the “enhancement in the delta band (1-4 Hz) of LFP in Ube3a m-/p+ mice” value is “normalized”. For the same molecule, the “changes in excitability and higher fAHP in neurons from Ube3a m-/p+ mice” value in data set [7] is listed as “normalized”.

As to `CCCNc1nc(NCCC)nc(N(C)OC)n1` [GAL-021, 2-N-methoxy-2-N-methyl-4-N,6-N-dipropyl-1,3,5-triazine-2,4,6-triamine], the “tolerated i.v. infusion dosage” value in the data set with healthy human volunteers is 0.1 to 0.96 mg/kg/h. In addition, the “changes in neuronal excitability, fAHP, and network hyperactivity and synchronization in human cortical organoids from UBE3A knockout stem cells” value in [3] was “normalized”. In addition, the “fAHP amplitude in KO hINs” value in data set [5] (GAL-021 50 μM or 100 μM, KO neurons) is on record as “lowered”; in [5] (GAL-021 200 μM, KO neurons) it was “not significantly different from that of 100 μM”; in [5] (GAL-021 200 μM, KO neurons, listed as GAL021) it was “normalized fAHP”. Moreover, in [5] (GAL-021 50 μM or 100 μM, WT neurons), the “fAHP amplitude (and AP firing frequencies) in WT hINs” value is “did not change; also recorded: did not affect”. Besides, the “spike frequency and fAHP in KO neurons compared with WT hINs” value in [5] (GAL-021 100 μM) is “Restoration”. Also, the “fAHP amplitude in WT hINs” value is recorded as “lowered” in data set [5] (GAL-021 200 μM, WT neurons) and “decreased fAHP” in data set [5] (GAL-021 200 μM, WT neurons, listed as GAL021). In addition, the “differences in fAHP amplitude and AP firing frequency between KO and WT neurons” value in [5] (GAL-021 50 or 100 μM) is given as “normalized”. Moreover, in [5] (GAL-021 application (50, 100, 200 μM tested)), the “intrinsic excitability associated with augmented fAHP in UBE3A-deficient human neurons” value is “returns to normal”.

As for `CC(C)C[C@@H](C=O)NC(=O)[C@H](CC(C)C)NC(=O)[C@H](CC(C)C)NC(=O)OCc1ccccc1` [MG312] (Cbz-Leu-Leu-Leu-aldehyde), the “decrease in the BK protein level caused by UBE3A coexpression” value in data set [8] is on record as “abolished”.
